Legend:
[1] = target: T1, MC4 (Homo sapiens, UniProt P32245); assay: GPCR radioligand binding (RLB) assay, melanocortin MC4, [125I]NDP-αMSH; details: 10 micromolar compound; recombinant human receptor membranes (HEK 293)
T1 construct: purchased Perkin Elmer BioSignal; host or cells: HEK 293
Procedure, shortened: (§1)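 Competition binding against radioligand ([125I]NDP-αMSH for MC4, [125I]SST-14 for SST5) on membranes of HEK 293 cells carrying the human receptor; buffer and incubation time optimized per receptor. Filtration through 0.5% PEI-treated glass fiber, washing, then scintillation counting.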

[2] = target: T2, SST5 (Homo sapiens, UniProt P35346); assay: GPCR radioligand binding (RLB) assay, somatostatin SST5, [125I]SST-14; details: 10 micromolar compound; recombinant human receptor membranes (HEK 293)
T2 construct: purchased Perkin Elmer BioSignal; host or cells: HEK 293
Procedure, shortened: as §1

T1 sequence (P32245 whole entry): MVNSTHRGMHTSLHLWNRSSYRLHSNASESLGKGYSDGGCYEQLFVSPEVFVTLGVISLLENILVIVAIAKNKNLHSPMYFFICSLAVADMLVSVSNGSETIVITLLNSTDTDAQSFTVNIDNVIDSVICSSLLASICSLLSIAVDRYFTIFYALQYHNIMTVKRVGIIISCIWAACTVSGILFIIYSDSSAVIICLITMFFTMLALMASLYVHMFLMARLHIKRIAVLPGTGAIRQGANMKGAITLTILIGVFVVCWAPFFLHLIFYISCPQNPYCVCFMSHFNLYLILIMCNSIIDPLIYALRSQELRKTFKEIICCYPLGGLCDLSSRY
T2 sequence (P35346 whole entry): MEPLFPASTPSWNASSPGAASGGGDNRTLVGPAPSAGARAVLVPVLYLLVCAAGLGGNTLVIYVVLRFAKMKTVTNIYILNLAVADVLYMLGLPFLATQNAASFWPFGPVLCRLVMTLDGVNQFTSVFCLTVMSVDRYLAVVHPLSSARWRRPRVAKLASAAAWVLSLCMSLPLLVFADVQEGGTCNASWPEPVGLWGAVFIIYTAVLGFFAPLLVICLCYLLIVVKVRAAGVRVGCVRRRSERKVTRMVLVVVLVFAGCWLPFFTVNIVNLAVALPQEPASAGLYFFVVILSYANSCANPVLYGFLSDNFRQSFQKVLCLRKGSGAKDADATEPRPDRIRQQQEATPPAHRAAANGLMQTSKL

Structure (SMILES)	MC4 inhibition at 10 micromolar [1]	SST5 inhibition at 10 micromolar [2]
CSC1OC(COCc2ccc(-c3ccccc3)cc2)C(O)C(OCc2ccc(Cl)cc2)C1NC(=O)CN (stereo not drawn) [Compound 155]	+ (Indicates inhibition greater than . . . 50%)	+ (Indicates inhibition greater than . . . 50%)
CSC1OC(COCc2ccc(-c3ccccc3)cc2)C(O)C(OCc2ccc(Cl)cc2)C1NC(=O)CNC(=N)N (stereo not drawn) [Compound 156]	+ (Indicates inhibition greater than . . . 50%)	+ (Indicates inhibition greater than . . . 50%)
CSC1OC(COCc2ccc(-c3ccccc3)cc2)C(O)C(OCc2ccc(Cl)cc2)C1NC(=O)CCN (stereo not drawn) [Compound 157]	+ (Indicates inhibition greater than . . . 50%)	+ (Indicates inhibition greater than . . . 50%)
CSC1OC(COCc2ccc(-c3ccccc3)cc2)C(O)C(OCc2ccc(Cl)cc2)C1NC(=O)CCNC(=N)N (stereo not drawn) [Compound 158]	+ (Indicates inhibition greater than . . . 50%)	+ (Indicates inhibition greater than . . . 50%)
CSC1OC(COCc2ccc(-c3ccccc3)cc2)C(O)C(OCc2ccc(Cl)cc2)C1NC(=O)CCCN (stereo not drawn) [Compound 159]	+ (Indicates inhibition greater than . . . 50%)	+ (Indicates inhibition greater than . . . 50%)
CSC1OC(COCc2ccc(-c3ccccc3)cc2)C(O)C(OCc2ccc(Cl)cc2)C1NC(=O)CCCNC(=N)N (stereo not drawn) [Compound 160]	+ (Indicates inhibition greater than . . . 50%)	+ (Indicates inhibition greater than . . . 50%)
CSC1OC(COCc2ccc3ccccc3c2)C(O)C(OCc2ccc(Cl)cc2)C1NC(=O)CN (stereo not drawn) [Compound 161]	+ (Indicates inhibition greater than . . . 50%)	+ (Indicates inhibition greater than . . . 50%)
CSC1OC(COCc2ccc3ccccc3c2)C(O)C(OCc2ccc(Cl)cc2)C1NC(=O)CNC(=N)N (stereo not drawn) [Compound 162]	+ (Indicates inhibition greater than . . . 50%)	+ (Indicates inhibition greater than . . . 50%)
CSC1OC(COCc2ccc3ccccc3c2)C(O)C(OCc2ccc(Cl)cc2)C1NC(=O)CCN (stereo not drawn) [Compound 163]	+ (Indicates inhibition greater than . . . 50%)	+ (Indicates inhibition greater than . . . 50%)
CSC1OC(COCc2ccc3ccccc3c2)C(O)C(OCc2ccc(Cl)cc2)C1NC(=O)CCNC(=N)N (stereo not drawn) [Compound 164]	+ (Indicates inhibition greater than . . . 50%)	+ (Indicates inhibition greater than . . . 50%)
CSC1OC(COCc2ccc3ccccc3c2)C(O)C(OCc2ccc(Cl)cc2)C1NC(=O)CCCN (stereo not drawn) [Compound 165]	+ (Indicates inhibition greater than . . . 50%)	+ (Indicates inhibition greater than . . . 50%)
CSC1OC(COCc2ccc3ccccc3c2)C(O)C(OCc2ccc(Cl)cc2)C1NC(=O)CCCNC(=N)N (stereo not drawn) [Compound 166]	+ (Indicates inhibition greater than . . . 50%)	+ (Indicates inhibition greater than . . . 50%)
CSC1OC(COCc2ccccc2)C(O)C(OCc2ccc(-c3ccccc3)cc2)C1NC(=O)CN (stereo not drawn) [Compound 167]	+ (Indicates inhibition greater than . . . 50%)	+ (Indicates inhibition greater than . . . 50%)
CSC1OC(COCc2ccccc2)C(O)C(OCc2ccc(-c3ccccc3)cc2)C1NC(=O)CNC(=N)N (stereo not drawn) [Compound 168]	+ (Indicates inhibition greater than . . . 50%)	+ (Indicates inhibition greater than . . . 50%)
CSC1OC(COCc2ccccc2)C(O)C(OCc2ccc(-c3ccccc3)cc2)C1NC(=O)CCN (stereo not drawn) [Compound 169]	+ (Indicates inhibition greater than . . . 50%)	+ (Indicates inhibition greater than . . . 50%)
CSC1OC(COCc2ccccc2)C(O)C(OCc2ccc(-c3ccccc3)cc2)C1NC(=O)CCNC(=N)N (stereo not drawn) [Compound 170]	+ (Indicates inhibition greater than . . . 50%)	+ (Indicates inhibition greater than . . . 50%)
CSC1OC(COCc2ccccc2)C(O)C(OCc2ccc(-c3ccccc3)cc2)C1NC(=O)CCCN (stereo not drawn) [Compound 171]	+ (Indicates inhibition greater than . . . 50%)	+ (Indicates inhibition greater than . . . 50%)

Structure (SMILES)	MC4 inhibition at 10 micromolar [1]	SST5 inhibition at 10 micromolar [2]
CSC1OC(COCc2ccccc2)C(O)C(OCc2ccc(-c3ccccc3)cc2)C1NC(=O)CCCNC(=N)N (stereo not drawn) [Compound 172]	+ (Indicates inhibition greater than . . . 50%)	+ (Indicates inhibition greater than . . . 50%)
CSC1OC(COCc2ccc(Cl)cc2)C(O)C(OCc2ccc(-c3ccccc3)cc2)C1NC(=O)CN (stereo not drawn) [Compound 173]	+ (Indicates inhibition greater than . . . 50%)	+ (Indicates inhibition greater than . . . 50%)
CSC1OC(COCc2ccc(Cl)cc2)C(O)C(OCc2ccc(-c3ccccc3)cc2)C1NC(=O)CNC(=N)N (stereo not drawn) [Compound 174]	+ (Indicates inhibition greater than . . . 50%)	+ (Indicates inhibition greater than . . . 50%)
CSC1OC(COCc2ccc(Cl)cc2)C(O)C(OCc2ccc(-c3ccccc3)cc2)C1NC(=O)CCN (stereo not drawn) [Compound 175]	+ (Indicates inhibition greater than . . . 50%)	+ (Indicates inhibition greater than . . . 50%)
CSC1OC(COCc2ccc(Cl)cc2)C(O)C(OCc2ccc(-c3ccccc3)cc2)C1NC(=O)CCNC(=N)N (stereo not drawn) [Compound 176]	+ (Indicates inhibition greater than . . . 50%)	+ (Indicates inhibition greater than . . . 50%)
CSC1OC(COCc2ccc(Cl)cc2)C(O)C(OCc2ccc(-c3ccccc3)cc2)C1NC(=O)CCCN (stereo not drawn) [Compound 177]	+ (Indicates inhibition greater than . . . 50%)	+ (Indicates inhibition greater than . . . 50%)
CSC1OC(COCc2ccc(Cl)cc2)C(O)C(OCc2ccc(-c3ccccc3)cc2)C1NC(=O)CCCNC(=N)N (stereo not drawn) [Compound 178]	+ (Indicates inhibition greater than . . . 50%)	+ (Indicates inhibition greater than . . . 50%)
CSC1OC(COCc2ccc(-c3ccccc3)cc2)C(O)C(OCc2ccc(-c3ccccc3)cc2)C1NC(=O)CN (stereo not drawn) [Compound 179]	+ (Indicates inhibition greater than . . . 50%)	+ (Indicates inhibition greater than . . . 50%)
CSC1OC(COCc2ccc(-c3ccccc3)cc2)C(O)C(OCc2ccc(-c3ccccc3)cc2)C1NC(=O)CNC(=N)N (stereo not drawn) [Compound 180]	+ (Indicates inhibition greater than . . . 50%)	+ (Indicates inhibition greater than . . . 50%)
CSC1OC(COCc2ccc(-c3ccccc3)cc2)C(O)C(OCc2ccc(-c3ccccc3)cc2)C1NC(=O)CCN (stereo not drawn) [Compound 181]	+ (Indicates inhibition greater than . . . 50%)	+ (Indicates inhibition greater than . . . 50%)
CSC1OC(COCc2ccc(-c3ccccc3)cc2)C(O)C(OCc2ccc(-c3ccccc3)cc2)C1NC(=O)CCNC(=N)N (stereo not drawn) [Compound 182]	+ (Indicates inhibition greater than . . . 50%)	+ (Indicates inhibition greater than . . . 50%)
CSC1OC(COCc2ccc(-c3ccccc3)cc2)C(O)C(OCc2ccc(-c3ccccc3)cc2)C1NC(=O)CCCN (stereo not drawn) [Compound 183]	+ (Indicates inhibition greater than . . . 50%)	+ (Indicates inhibition greater than . . . 50%)
CSC1OC(COCc2ccc3ccccc3c2)C(O)C(OCc2ccc(-c3ccccc3)cc2)C1NC(=O)CNC(=N)N (stereo not drawn) [Compound 186]	+ (Indicates inhibition greater than . . . 50%)	+ (Indicates inhibition greater than . . . 50%)
CSC1OC(COCc2ccc3ccccc3c2)C(O)C(OCc2ccc(-c3ccccc3)cc2)C1NC(=O)CCN (stereo not drawn) [Compound 187]	+ (Indicates inhibition greater than . . . 50%)	+ (Indicates inhibition greater than . . . 50%)
CSC1OC(COCc2ccc3ccccc3c2)C(O)C(OCc2ccc(-c3ccccc3)cc2)C1NC(=O)CCNC(=N)N (stereo not drawn) [Compound 188]	+ (Indicates inhibition greater than . . . 50%)	+ (Indicates inhibition greater than . . . 50%)
CSC1OC(COCc2ccc3ccccc3c2)C(O)C(OCc2ccc(-c3ccccc3)cc2)C1NC(=O)CCCN (stereo not drawn) [Compound 189]	+ (Indicates inhibition greater than . . . 50%)	+ (Indicates inhibition greater than . . . 50%)
